Test results from patent US11174268B2, “Benzenesulfonamide compouds and their use as therapeutic agents” (Xenon Pharmaceuticals Inc., priority 2016, dated 2021).
Where a name gives a salt, the structure may show the parent alone.

Tests used:
NaV1.6 = NaV1.6 (Homo sapiens (Human), UniProt Q9UQD0); test: Sodium Influx Assay (Flux), NaV1.6; type: cell-based; settings: Trex HEK293 cells, ANG2 dye, inactivated state;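 also: Tetracycline-induced cells, compounds applied for one hour at room temperature with modulators holding channels open, IC50 from percent inhibition of sodium influx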
NaV1.1 = NaV1.1 (Homo sapiens (Human), UniProt P35498); test: Sodium Influx Assay (Flux), NaV1.1; type: cell-based; settings: Trex HEK293 cells, ANG2 dye, inactivated state;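 also: channels co-expressed with human β1 subunit and held open by modulators, cells exposed to compounds for one hour at room temperature, IC50 from percent inhibition of influx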
NaV1.5 = NaV1.5 (Homo sapiens (Human), UniProt Q14524)
NaV1.5, sequence (Q14524 other isoform, or with tags, fused parts or gaps): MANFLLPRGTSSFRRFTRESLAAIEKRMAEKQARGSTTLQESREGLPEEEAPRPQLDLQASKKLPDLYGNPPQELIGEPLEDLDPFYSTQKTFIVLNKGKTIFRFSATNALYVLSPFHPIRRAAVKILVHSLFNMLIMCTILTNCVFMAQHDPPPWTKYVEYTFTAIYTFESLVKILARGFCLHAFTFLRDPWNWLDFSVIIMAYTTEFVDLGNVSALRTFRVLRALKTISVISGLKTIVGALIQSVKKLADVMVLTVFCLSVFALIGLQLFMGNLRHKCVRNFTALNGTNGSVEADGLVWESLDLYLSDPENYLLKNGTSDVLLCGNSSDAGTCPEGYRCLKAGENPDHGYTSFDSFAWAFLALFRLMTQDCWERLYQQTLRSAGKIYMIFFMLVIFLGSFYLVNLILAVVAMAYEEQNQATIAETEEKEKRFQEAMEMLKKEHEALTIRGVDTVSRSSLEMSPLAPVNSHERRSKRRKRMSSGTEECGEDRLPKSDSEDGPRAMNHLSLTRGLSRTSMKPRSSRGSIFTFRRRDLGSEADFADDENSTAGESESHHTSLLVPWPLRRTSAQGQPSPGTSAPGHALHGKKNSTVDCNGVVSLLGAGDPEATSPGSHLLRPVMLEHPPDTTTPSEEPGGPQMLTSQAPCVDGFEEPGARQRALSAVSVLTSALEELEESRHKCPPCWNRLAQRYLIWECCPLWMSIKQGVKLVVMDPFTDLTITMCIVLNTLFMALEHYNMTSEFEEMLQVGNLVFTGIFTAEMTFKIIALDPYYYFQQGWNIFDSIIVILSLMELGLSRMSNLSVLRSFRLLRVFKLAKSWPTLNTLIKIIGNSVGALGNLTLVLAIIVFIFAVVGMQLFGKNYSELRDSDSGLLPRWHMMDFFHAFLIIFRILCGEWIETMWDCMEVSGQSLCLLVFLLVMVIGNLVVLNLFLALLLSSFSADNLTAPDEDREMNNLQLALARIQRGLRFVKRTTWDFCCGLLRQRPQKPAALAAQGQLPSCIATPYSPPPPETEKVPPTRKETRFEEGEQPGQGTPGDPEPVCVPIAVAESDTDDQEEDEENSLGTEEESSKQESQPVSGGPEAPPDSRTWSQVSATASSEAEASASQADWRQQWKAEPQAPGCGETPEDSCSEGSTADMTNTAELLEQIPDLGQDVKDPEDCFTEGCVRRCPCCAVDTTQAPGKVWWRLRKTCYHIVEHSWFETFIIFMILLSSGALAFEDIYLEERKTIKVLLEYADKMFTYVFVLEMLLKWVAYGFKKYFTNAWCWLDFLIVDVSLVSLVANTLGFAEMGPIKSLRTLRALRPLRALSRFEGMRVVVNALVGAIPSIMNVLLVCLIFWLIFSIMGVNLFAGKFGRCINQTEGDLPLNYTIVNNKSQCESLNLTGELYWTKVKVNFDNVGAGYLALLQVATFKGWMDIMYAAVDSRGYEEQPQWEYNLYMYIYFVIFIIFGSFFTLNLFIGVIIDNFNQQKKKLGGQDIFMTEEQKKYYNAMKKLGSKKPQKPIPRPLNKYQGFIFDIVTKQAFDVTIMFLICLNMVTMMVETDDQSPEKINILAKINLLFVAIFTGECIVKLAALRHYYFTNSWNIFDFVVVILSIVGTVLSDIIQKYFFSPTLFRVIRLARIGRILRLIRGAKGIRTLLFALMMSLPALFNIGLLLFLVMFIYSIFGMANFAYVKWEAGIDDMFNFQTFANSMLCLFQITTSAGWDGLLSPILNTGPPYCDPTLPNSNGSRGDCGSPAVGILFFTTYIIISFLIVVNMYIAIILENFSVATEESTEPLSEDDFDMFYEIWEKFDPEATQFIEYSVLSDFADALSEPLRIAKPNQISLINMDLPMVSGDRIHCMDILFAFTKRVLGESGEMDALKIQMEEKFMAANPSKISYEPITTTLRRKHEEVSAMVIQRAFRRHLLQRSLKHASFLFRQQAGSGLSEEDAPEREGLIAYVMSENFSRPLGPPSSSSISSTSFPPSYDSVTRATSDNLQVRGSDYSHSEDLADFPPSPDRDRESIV

SMILES	IC50 (NaV1.6)	IC50 (NaV1.1)	IC50 (NaV1.5)
CC1(C)CCN1Cc1c(F)cccc1CNc1cc(F)c(S(=O)(=O)Nc2cscn2)c(F)c1 [Example 198, 4-((2-((2,2-dimethylazetidin-1-yl)methyl)-3-fluorobenzyl)amino)-2,6-difluoro-N-(thiazol-4-yl)benzenesulfonamide formate]	0.391 µM	25.8 µM	30 µM
C[C@H](Nc1cc(F)c(S(=O)(=O)Nc2cscn2)cc1Cl)c1cc(CCN2CCC2)ccc1F [Example 257, (S)-4-((1-(5-(2-(azetidin-1-yl)ethyl)-2-fluorophenyl)ethyl)amino)-5-chloro-2-fluoro-N-(thiazol-4-yl)benzenesulfonamide formate]	0.49 µM	6.1 µM	8.39 µM
